# Experimental data published in patent publication US20120122727A1, “IN VITRO METHOD FOR PREDICTING WHETHER A COMPOUND IS GENOTOXIC IN VIVO” (priority 2009, published 2012).
# Test system: primary mouse hepatocytes
# Test: Gene expression (Affymetrix Mouse Genome 430 2.0) in primary mouse hepatocytes, true vs false GTX, 24 h and 48 h
# Conditions: 48 h; log2, corrected for vehicle control
structure (smiles),measurement,value
"Nc1ccccc1C(=O)O [ANAC, o-Anthranilic acid]",Gene expression AK005731 average,−0.6498
same,Gene expression AK007854 average,−0.2242
same,Gene expression AK010447 average,−0.1083
same,Gene expression AK010738 average,−0.06687
same,Gene expression AK014608 average,−0.455
same,Gene expression AK017734 average,−0.5275
same,Gene expression AK018383 average,−0.0203
same,Gene expression AK019979 average,0.04547
same,Gene expression AV095209 average,0.2956
same,Gene expression AV141095 average,−0.0311
same,Gene expression AV173869 average,−0.005067
same,Gene expression AV216768 average,0.4153
same,Gene expression AV219418 average,0.1539
same,Gene expression AV221299 average,0.1649
same,Gene expression AV246296 average,−0.1054
same,Gene expression AV251625 average,0.0423
same,Gene expression AV254764 average,−0.265
same,Gene expression AV327248 average,0.0856
same,Gene expression BB009155 average,−0.4697
same,Gene expression BB027848 average,−0.2609
same,Gene expression BB043558 average,−0.188
same,Gene expression BB046347 average,−0.1072
same,Gene expression BB140436 average,−0.07237
same,Gene expression BB204486 average,0.3188
same,Gene expression BB223872 average,−0.4287
same,Gene expression BB246912 average,−0.1992
same,Gene expression BB275142 average,−0.2874
same,Gene expression BB458460 average,0.007967
same,Gene expression BB463610 average,−0.2186
same,Gene expression BB730977 average,0.7532
same,Gene expression BB743970 average,0.1551
same,Gene expression BB770528 average,−0.001733
same,Gene expression BB781615 average,−0.2937
same,Gene expression BC003284 average,−0.2108
same,Gene expression BC004827 average,0.3756
same,Gene expression BC005552 average,0.3056
same,Gene expression BC006713 average,−0.1305
same,Gene expression BC010318 average,0.1353
same,Gene expression BC012247 average,−0.5319
same,Gene expression BC012955 average,−0.2554
same,Gene expression BC013893 average,−0.5709
same,Gene expression BC017615 average,0.06827
same,Gene expression BC019379 average,0.0072
same,Gene expression BC019882 average,0.1948
same,Gene expression BC021352 average,0.06563
same,Gene expression BC022148 average,−0.1976
same,Gene expression BC025169 average,−0.0788
same,Gene expression BC026131 average,0.0392
same,Gene expression BC027026 average,−0.007933
same,Gene expression BC027121 average,−0.1424
same,Gene expression BC027185 average,−0.2381
same,Gene expression BE956581 average,0.04267
same,Gene expression BF719766 average,0.07637
same,Gene expression BG065754 average,0.0641
same,Gene expression BG066491 average,−0.061
same,Gene expression BG076151 average,−0.241
same,Gene expression BG076333 average,0.2383
same,Gene expression BG797099 average,−0.02097
same,Gene expression BG967046 average,−0.2562
same,Gene expression BI651416 average,−0.1051
same,Gene expression BI966443 average,0.07723
same,Gene expression BM198879 average,−0.1608
same,Gene expression BM200015 average,0.009533
same,Gene expression BM230508 average,−0.471
same,Gene expression BM936480 average,−0.04323
same,Gene expression BQ174991 average,0.4039
same,Gene expression L21027 average,0.3857
same,Gene expression NM_007556 average,0.5247
same,Gene expression NM_007980 average,0.1776
same,Gene expression NM_007987 average,−0.005833
same,Gene expression NM_008522 average,−0.06957
same,Gene expression NM_008935 average,0.3779
same,Gene expression NM_009897 average,0.09963
same,Gene expression NM_011075 average,0.3891
same,Gene expression NM_011176 average,−0.4607
same,Gene expression NM_011316 average,−0.4717
same,Gene expression NM_012006 average,1.5971
same,Gene expression NM_013642 average,0.3286
same,Gene expression NM_013738 average,−0.3378
same,Gene expression NM_013929 average,−0.006633
same,Gene expression NM_018881 average,0.08383
same,Gene expression NM_019738 average,−0.6326
same,Gene expression NM_030697 average,−0.6238
same,Gene expression NM_053122 average,−0.04513
same,Gene expression NM_134147 average,−0.2207
same,Gene expression NM_134188 average,0.2382
same,Gene expression X62701 average,0.7542
